From patent publication US9365522B2, “Pyrazole amide derivative” (AMGEN INC., priority 2015, dated 2016)

Target: T1, ligand binding domain of human ROR gamma (Homo sapiens, UniProt P51449)
T1 construct: NM_001001523; expressed in transfected cells; host or cells: HEK293T
T1 sequence (P51449 247-497 isoform P51449-2): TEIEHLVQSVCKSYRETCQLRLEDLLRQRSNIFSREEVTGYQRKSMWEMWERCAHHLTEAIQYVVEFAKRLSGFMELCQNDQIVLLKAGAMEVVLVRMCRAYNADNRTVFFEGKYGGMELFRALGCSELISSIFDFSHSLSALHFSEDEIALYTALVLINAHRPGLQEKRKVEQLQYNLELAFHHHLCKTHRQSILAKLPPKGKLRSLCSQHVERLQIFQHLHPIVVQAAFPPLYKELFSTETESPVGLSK
Experiment: ROR gamma reporter gene assay (GAL4-RORγ LBD luciferase, Dual-Glo)
Type: cell-based
Details: HEK293T cells transfected with pM-ROR gamma, 8 concentrations 3.5 nM to 10.5 μM, 24 h incubation; read-out: result (pIC50, inhibition of RORγ transcriptional activity) (converted)
In short: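 Inhibition of RORγ-driven transcription was measured in HEK293T cells expressing a GAL4 fusion of the human RORγ LBD (aa 247-497), with renilla luciferase as internal control. Cells in 10% charcoal-stripped serum received compound (3.5 nM–10.5 μM) for 24 h.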

| SMILES | IC50 [pM] |
| --- | --- |
| O=C(CN(Cc1cc(F)cc(F)c1)C(=O)c1cnn([C@H]2CC[C@H](C(=O)O)CC2)c1C1CC1)c1c(Cl)cncc1Cl [Example 17, trans-4-(5-cyclopropyl-4-((2-(3,5-dichloropyridin-4-yl)-2-oxoethyl)(3,5-difluorobenzyl)carbamoyl)-1H-pyrazol-1-yl)cyclohexanecarboxylic acid] | 24500 |
| CC12CCC(CN(CC(=O)c3c(Cl)cncc3Cl)C(=O)c3cnn([C@H]4CC[C@](C)(C(=O)O)CC4)c3Cl)(CC1)O2 [Example 386, trans-4-(5-chloro-4-((2-(3,5-dichloropyridin-4-yl)-2-oxoethyl)-((1-methyl-7-oxabicyclo[2.2.1]heptan-4-yl)methyl)carbamoyl)pyrazol-1-yl)-1-methylcyclohexane-1-carboxylic acid] | 141000 |
| COCC(C)N(CC(=O)c1c(Cl)cncc1Cl)C(=O)c1cnn([C@H]2CC[C@](C)(C(=O)O)CC2)c1C(F)(F)F (stereo partly drawn) [Example 313, trans-4-(4-((2-(3,5-dichloropyridin-4-yl)-2-oxoethyl)-(1-methoxypropan-2-yl)carbamoyl)-5-(trifluoromethyl)pyrazol-1-yl)-1-methylcyclohexane-1-carboxylic acid] | 1.55e+06 |
| O=C(CN(C[C@H]1CCOC1)C(=O)c1cnn([C@H]2CC[C@H](C(=O)O)CC2)c1C(F)(F)F)c1c(Cl)cncc1Cl [Example 39, trans-4-(4-((2-(3,5-dichloropyridin-4-yl)-2-oxoethyl)(((R)-tetrahydrofuran-3-yl)methyl)carbamoyl)-5-(trifluoromethyl)-1H-pyrazol-1-yl)cyclohexanecarboxylic acid] | > 1e+07 |
| CC(C)(C)C#CCN(CC(=O)c1c(Cl)cncc1Cl)C(=O)c1cnn([C@H]2CC[C@H](C(=O)O)CC2)c1C(F)(F)F [Example 110, trans-4-(4-((2-(3,5-dichloropyridin-4-yl)-2-oxoethyl)-(4,4-dimethylpent-2-ynyl)carbamoyl)-5-(trifluoromethyl)pyrazol-1-yl)cyclohexane-1-carboxylic acid] | 162000 |
| COc1cccc(Cl)c1[C@@H](O)CN(C(=O)c1cnn([C@H]2CC[C@](C)(C(=O)O)CC2)c1Cl)[C@H]1C[C@@H]2[C@H](C1)C2(C)C [Example 374, trans-4-(5-chloro-4-((2-(2-chloro-6-methoxyphenyl)-2-hydroxyethyl)((1R,3r,5S)-6,6-dimethylbicydo[3.1.0]hexan-3-yl)carbamoyl)-1H-pyrazol-1-yl)-1-methylcyclohexanecarboxylic acid] | 661000 |
| CC1(C)[C@@H]2C[C@H](N(CC(=O)c3ncccc3Cl)C(=O)c3cnn([C@H]4CC[C@](C)(C(=O)O)CC4)c3C(F)(F)F)C[C@@H]21 [Example 398, trans-4-(4-((2-(3-chloropyridin-2-yl)-2-oxoethyl)((1R,3r,5S}-6,6-dimethylbicyclo[3.1.0]hexan-3-yl)carbamoyl)-5-(trifluoromethyl)-1H -pyrazol-1-yl)-1-methylcyclohexanecarboxylic acid] | 676000 |
| CC1(C)CCC(N(CCc2c[nH]c3cccc(Cl)c23)C(=O)c2cnn([C@H]3CC[C@](C)(C(=O)O)CC3)c2C(F)(F)F)CC1 [Example 349, trans-4-(4-(2-(4-chloro-1H-indol-3-yl)ethyl-(4,4-dimethylcyclohexyl)carbamoyl)-5-(trifluoromethyl)pyrazol-1-yl)-1-methylcyclohexane-1-carboxylic acid] | 79400 |
| O=C(CN(CC1(F)CCCC1)C(=O)c1cnn([C@H]2CC[C@H](C(=O)O)CC2)c1C(F)(F)F)c1c(Cl)cncc1Cl [Example 194, trans-4-(4-((2-(3,5-dichloropyridin-4-yl)-2-oxoethyl)-((1-fluorocyclopentyl)methyl)carbamoyl)-5-(trifluoromethyl)pyrazol-1-yl)cyclohexane-1-carboxylic acid] | 14100 |
| O=C(c1cnn([C@H]2CC[C@H](C(=O)O)CC2)c1C(F)(F)F)N(Cc1ccc(F)cc1)CC(O)c1c(Cl)cncc1Cl (stereo partly drawn) [Example 90, trans-4-(4-((2-(3,5-dichloropyridin-4-yl)-2-hydroxyethyl)(4-fluorobenzyl)carbamoyl)-5-(trifluoromethyl)-1H-pyrazol-1-yl)cyclohexanecarboxylic acid] | 501000 |

Results, then the molecule that gave them:

| IC50 [pM] | SMILES |
| --- | --- |
| < 3470 | CC1(C)CC(CN(CC(=O)c2c(Cl)cc(Cl)cc2Cl)C(=O)c2cnn([C@H]3CC[C@](C)(C(=O)O)CC3)c2C(F)(F)F)C1 [Example 250, trans-4-(4-((3,3-dimethylcyclobutyl)methyl-(2-oxo-2-(2,4,6-trichlorophenyl)ethyl)carbamoyl)-5-(trifluoromethyl)pyrazol-1-yl)-1-methylcyclohexane-1-carboxylic acid] |
| 60300 | CC(C)(C)OCCN(CC(=O)c1c(Cl)cc(C(F)(F)F)cc1Cl)C(=O)c1cnn([C@H]2CC[C@](C)(C(=O)O)CC2)c1C(F)(F)F [Example 149, trans-4-(4-((2-(2,6-dichloro-4-(trifluoromethyl)phenyl)-2-oxoethyl)-(2-((2-methylpropan-2-yl)oxy)ethyl)carbamoyl)-5-(trifluoromethyl)pyrazol-1-yl)-1-methylcyclohexane-1-carboxylic acid] |
| 11200 | CCC(C)(C)CN(CC(=O)c1c(Cl)cc(F)cc1Cl)C(=O)c1cnn(C23CCC(C(=O)O)(CC2)CC3)c1C(F)(F)F [Example 309, 4-(4-((2-(2,6-dichloro-4-fluorophenyl)-2-oxoethyl)-(2,2 dimethylbutyl)carbarnoyl)-5-(trifluoromethyl)pyrazol-1-yl)bicyclo [2.2.2] octane-1-carboxylic acid] |
| 49000 | CC(C)(C)CN(CC(=O)c1c(F)cncc1Cl)C(=O)c1cnn([C@H]2CC[C@](C)(C(=O)O)CC2)c1C(F)(F)F [Example 294, trans-4-(4-((2-(3-chloro-5-fluoropyridin-4-yl)-2-oxoethyl)-(2,2-dimethylpropyl)carbamoyl)-5-(trifluoromethyl)pyrazol-1-yl)-1-methylcyclohexane-1-carboxylic acid] |
| 55000 | COc1cncc(Cl)c1C(=O)CN(CC(C)(C)C)C(=O)c1cnn([C@H]2CC[C@](C)(C(=O)O)CC2)c1C(F)(F)F [Example 315, trans-4-(4-((2-(3-chloro-5-methoxypyridin-4-yl)-2-oxoethyl)-(2,2-dimethylpropyl)carbamoyl)-5-(trifluoromethyl)pyrazol-1-yl)-1-methylcyclohexane-1-carboxylic acid] |
| 97700 | CC(C)(F)CN(CC(=O)c1c(Cl)cncc1Cl)C(=O)c1cnn(C23CCC(C(=O)O)(CC2)CC3)c1C(F)(F)F [Example 327, 4-(4-((2-(3,5-dichloropyridin-4-yl)-2-oxoethyl)-(2-fluoro-2-methylpropyl)carbamoyl)-5-(trifluoromethyl)pyrazol-1-yl)bicyclo[2.2.2]octane-1-carboxylic acid] |
| 209000 | C[C@]1(C(=O)O)CC[C@@H](n2ncc(C(=O)N(CC(=O)c3c(Cl)cncc3Cl)Cc3ccc(F)cc3)c2C(F)(F)F)CC1 [Example 79, trans-4-(4-((2-(3,5-dichloropyridin-4-yl)-2-oxoethyl)(4-fluorobenzyl)carbamoyl)-5-(trifluoromethyl)-1H-pyrazol-1-yl)-1-methylcyclohexanecarboxylic acid] |
